Results on six compounds are retold here after ChEMBL document CHEMBL5537115, “New broad-spectrum and potent antibacterial agents with dual-targeting mechanism: Promoting FtsZ polymerization and disrupting bacterial membranes” (Eur J Med Chem, 2024).

For orientation: MIC means the lowest concentration found to suppress growth. One may read the MBC as the lowest tested concentration that kills the bacteria rather than only halting them. Lower therefore signals greater bactericidal potency.

Converted amounts (≈) assume the structure as drawn.

Holding throughout (type): functional
The test system of experiment [1] is Streptococcus pyogenes. As to the kind of experiment: Antibacterial activity against erythromycin-susceptible Streptococcus pyogenes 1 assessed as bacterial growth inhibition incubated for 20 hrs by CLSI based broth microdilution method.
Experiment [2] has as its system Acinetobacter baumannii. As to the kind of experiment: Antibacterial activity against Acinetobacter baumannii ATCC19606 incubated for 18 to 24 hrs. The settings on record: time 18-24 hrs.
Experiment [3] relates to Staphylococcus aureus. As to the kind of experiment: Antibacterial activity against erythromycin-susceptible Staphylococcus aureus ATCC25923 incubated for 18 to 24 hrs. As to conditions: time 18-24 hrs.
The subject of a further experiment is Bacillus pumilus. As to the kind of experiment: Antibacterial activity against penicillin-susceptible Bacillus pumilus CMCC63202 assessed as bacterial growth inhibition incubated for 20 hrs by CLSI based broth microdilution method. On the technique in general: Dilution methods test growth across graded concentrations, often in twofold steps.
The test system of experiment [4] is Enterococcus faecium. As to the kind of experiment: Antibacterial activity against vancomycin-resistant Enterococcus faecium ATCC51559 assessed as bacterial growth inhibition incubated for 20 hrs by CLSI based broth microdilution method.
Experiment [5] concerns Enterococcus faecium. As to the kind of experiment: Antibacterial activity against vancomycin-susceptible Enterococcus faecium ATCC19434 assessed as bacterial growth inhibition incubated for 20 hrs by CLSI based broth microdilution method.
For another experiment, the system named is Klebsiella pneumoniae. As to the kind of experiment: Antibacterial activity against Klebsiella pneumoniae ATCC BAA-1902 assessed as bacterial growth inhibition incubated for 20 hrs by CLSI based broth microdilution method.
The subject of experiment [6] is Escherichia coli. As to the kind of experiment: Antibacterial activity against penicillin-susceptible Escherichia coli ATCC25922 assessed as bacterial growth inhibition incubated for 20 hrs by CLSI based broth microdilution method.
Experiment [7] deals with Streptococcus pyogenes. As to the kind of experiment: Antibacterial activity against erythromycin-resistant Streptococcus pyogenes 2 clinical isolate assessed as bacterial growth inhibition incubated for 20 hrs by CLSI based broth microdilution method.
Experiment [8] has as its system Acinetobacter baumannii. As to the kind of experiment: Antibacterial activity against Acinetobacter baumannii ATCC19606 assessed as bacterial growth inhibition incubated for 20 hrs by CLSI based broth microdilution method.
The test system of experiment [9] is Bacillus subtilis. As to the kind of experiment: Antibacterial activity against penicillin-susceptible Bacillus subtilis ATCC9372 assessed as bacterial growth inhibition incubated for 20 hrs by CLSI based broth microdilution method.
In experiment [10] the test system is Staphylococcus epidermidis. As to the kind of experiment: Antibacterial activity against penicillin-resistant Staphylococcus epidermidis clinical isolate assessed as bacterial growth inhibition incubated for 20 hrs by CLSI based broth microdilution method.
Experiment [11] deals with Staphylococcus aureus. As to the kind of experiment: Antibacterial activity against Staphylococcus aureus clinical isolate incubated for 18 to 24 hrs. The settings on record: time 18-24 hrs.
Experiment [12] deals with Staphylococcus aureus. As to the kind of experiment: Antibacterial activity against methicillin-resistant Staphylococcus aureus ATCC43300 incubated for 18 to 20 hrs. As to conditions: time 18-20 hrs.
The test system of experiment [13] is Bacillus subtilis. As to the kind of experiment: Antibacterial activity against penicillin-susceptible Bacillus subtilis ATCC9372 incubated for 18 to 24 hrs. As to conditions: time 18-24 hrs.
Experiment [14] concerns Escherichia coli. As to the kind of experiment: Antibacterial activity against wild-type Escherichia coli BW25113 assessed as bacterial growth inhibition incubated for 20 hrs by CLSI based broth microdilution method.
The test system of experiment [15] is Staphylococcus aureus. As to the kind of experiment: Induction of resistance development in Staphylococcus aureus ATCC25923 assessed as fold increase in MIC at 0.5 times MIC measured after 32 days by multi-passage resistance assay relative to control. The settings on record: time 32.0 day.
Experiment [16] relates to Enterococcus faecalis. As to the kind of experiment: Antibacterial activity against vancomycin-resistant Enterococcus faecalis ATCC51299 assessed as bacterial growth inhibition incubated for 20 hrs by CLSI based broth microdilution method.
For experiment [17], the system named is Staphylococcus aureus. As to the kind of experiment: Antibacterial activity against erythromycin-susceptible Staphylococcus aureus ATCC25923 assessed as bacterial growth inhibition incubated for 20 hrs by CLSI based broth microdilution method.
The test system of experiment [18] is Staphylococcus aureus. As to the kind of experiment: Antibacterial activity against Staphylococcus aureus clinical isolate assessed as bacterial growth inhibition incubated for 20 hrs by CLSI based broth microdilution method.
In experiment [19] the test system is Staphylococcus aureus. As to the kind of experiment: Antibacterial activity against penicillin-resistant Staphylococcus aureus ATCC31007 assessed as bacterial growth inhibition incubated for 20 hrs by CLSI based broth microdilution method.
The subject of experiment [20] is Enterococcus faecalis. As to the kind of experiment: Antibacterial activity against vancomycin-susceptible Enterococcus faecalis ATCC29212 assessed as bacterial growth inhibition incubated for 20 hrs by CLSI based broth microdilution method.
For experiment [21], the system named is Staphylococcus aureus. As to the kind of experiment: Antibacterial activity against methicillin-resistant Staphylococcus aureus ATCC43300 assessed as bacterial growth inhibition incubated for 20 hrs by CLSI based broth microdilution method.

In the case of `CC(=O)NC[C@H]1CN(c2ccc(N3CCOCC3)c(F)c2)C(=O)O1` [LINEZOLID], the MIC was 1 µg/mL (≈ 2.96 µM) with Streptococcus pyogenes [1]; 2 µg/mL (≈ 5.93 µM) in the experiment with Bacillus pumilus; 4 µg/mL (≈ 11.9 µM) in the experiment on Enterococcus faecium [4]; 8 µg/mL (≈ 23.7 µM) with Enterococcus faecium [5]; greater than 64 µg/mL in the experiment with Klebsiella pneumoniae; greater than 64 µg/mL in the experiment with Escherichia coli [6]. For the same compound, the MIC is 1 µg/mL (≈ 2.96 µM) in the experiment with Streptococcus pyogenes [7]; greater than 64 µg/mL in the experiment on Acinetobacter baumannii [8]; 0.5 µg/mL (≈ 1.48 µM) in the experiment with Bacillus subtilis [9]; 4 µg/mL (≈ 11.9 µM) in experiment [10]; greater than 64 µg/mL with Escherichia coli [14]. Also, the MBC in the experiment with Acinetobacter baumannii [2] is greater than 64 µg/mL; against Staphylococcus aureus [3], greater than 64 µg/mL; against Staphylococcus aureus [11], greater than 64 µg/mL; in the experiment with Staphylococcus aureus [12] it was 8 µg/mL (≈ 23.7 µM); in the experiment with Bacillus subtilis [13], 64 µg/mL (≈ 190 µM).
For `CO[C@H]1/C=C/O[C@@]2(C)Oc3c(C)c(O)c4c(O)c(c(/C=N/N5CCN(C)CC5)c(O)c4c3C2=O)NC(=O)/C(C)=C\C=C\[C@H](C)[C@H](O)[C@@H](C)[C@@H](O)[C@@H](C)[C@H](OC(C)=O)[C@@H]1C`, the fold change (FC) with Staphylococcus aureus [15] was 8192.
For the compound `CCOc1ccc(/C=C/c2cc(-c3ccccc3)c[n+](C)c2-c2ccccc2)cc1.[I-]`, the MIC in the experiment with Streptococcus pyogenes [1] was 4 µg/mL; in the experiment on Bacillus pumilus, 16 µg/mL; in the experiment on Enterococcus faecalis [16], 32 µg/mL; in the experiment on Staphylococcus aureus [17], 2 µg/mL; in the experiment with Enterococcus faecium [4] it was 16 µg/mL; in the experiment on Enterococcus faecium [5] it was 32 µg/mL. Also, the minimal inhibitory concentration (MIC) in the experiment on Klebsiella pneumoniae was greater than 64 µg/mL; in the experiment on Staphylococcus aureus [18], 2 µg/mL; in the experiment on Escherichia coli [6] it was greater than 64 µg/mL; in the experiment on Staphylococcus aureus [19], 16 µg/mL; with Enterococcus faecalis [20], 16 µg/mL; with Streptococcus pyogenes [7], 8 µg/mL. The minimal inhibitory concentration (MIC) was 16 µg/mL with Acinetobacter baumannii [8]; 8 µg/mL in the experiment with Staphylococcus aureus [21]; 4 µg/mL in the experiment with Bacillus subtilis [9]; 16 µg/mL in experiment [10]; greater than 64 µg/mL in the experiment on Escherichia coli [14].
Consider `COc1cc(/C=C/c2cc(-c3ccccc3)c[n+](C)c2-c2ccccc2)cc(OC)c1OC.[I-]`, for which the MIC in the experiment with Streptococcus pyogenes [1] is 16 µg/mL; in the experiment with Bacillus pumilus, 64 µg/mL; in the experiment on Enterococcus faecalis [16] it was greater than 64 µg/mL; in the experiment on Staphylococcus aureus [17], greater than 64 µg/mL; in the experiment on Enterococcus faecium [4], greater than 64 µg/mL; in the experiment on Enterococcus faecium [5], greater than 64 µg/mL. The MIC in the experiment with Klebsiella pneumoniae is greater than 64 µg/mL; with Staphylococcus aureus [18] it was 16 µg/mL; with Escherichia coli [6], greater than 64 µg/mL; with Staphylococcus aureus [19] it was greater than 64 µg/mL; with Enterococcus faecalis [20] it was greater than 64 µg/mL; in the experiment with Streptococcus pyogenes [7] it was 16 µg/mL. The MIC was greater than 64 µg/mL in the experiment on Acinetobacter baumannii [8]; 64 µg/mL in the experiment with Staphylococcus aureus [21]; 16 µg/mL in the experiment on Bacillus subtilis [9]; greater than 64 µg/mL in [10]; greater than 64 µg/mL with Escherichia coli [14].
As to `CCCOc1ccc(/C=C/c2cc(-c3ccc(C(C)(C)C)cc3)[n+](C)cc2-c2ccccc2)cc1.[I-]`, the MIC stood at 2 µg/mL in the experiment with Streptococcus pyogenes [1]; 1 µg/mL in the experiment with Bacillus pumilus; 1 µg/mL in the experiment with Enterococcus faecalis [16]; 0.125 µg/mL in the experiment with Staphylococcus aureus [17]; 1 µg/mL in the experiment on Enterococcus faecium [4]; 1 µg/mL with Enterococcus faecium [5]. The MIC with Klebsiella pneumoniae was 8 µg/mL; in the experiment on Staphylococcus aureus [18] it was 0.5 µg/mL; in the experiment with Escherichia coli [6] it was 4 µg/mL; in the experiment on Staphylococcus aureus [19], 1 µg/mL; in the experiment with Enterococcus faecalis [20] it was 2 µg/mL; in the experiment with Streptococcus pyogenes [7], 2 µg/mL. In addition, the minimum inhibitory concentration (MIC) in the experiment on Acinetobacter baumannii [8] was found to be 2 µg/mL; with Staphylococcus aureus [21], 0.5 µg/mL; with Bacillus subtilis [9], 0.125 µg/mL; in experiment [10] it was 1 µg/mL; in the experiment with Escherichia coli [14], 8 µg/mL.
`CCCCCOc1ccc(/C=C/c2cc(-c3ccccc3)c[n+](C)c2-c2ccccc2)cc1.[I-]`: the minimal inhibitory concentration (MIC) stood at 2 µg/mL in the experiment with Streptococcus pyogenes [1]; 1 µg/mL with Bacillus pumilus; 2 µg/mL with Enterococcus faecalis [16]; 0.25 µg/mL in the experiment on Staphylococcus aureus [17]; 2 µg/mL with Enterococcus faecium [4]; 2 µg/mL in the experiment on Enterococcus faecium [5]. The MIC in the experiment with Klebsiella pneumoniae was 8 µg/mL; in the experiment with Staphylococcus aureus [18], 1 µg/mL; in the experiment on Escherichia coli [6], 4 µg/mL; in the experiment on Staphylococcus aureus [19], 1 µg/mL; in the experiment with Enterococcus faecalis [20] it was 2 µg/mL; in the experiment on Streptococcus pyogenes [7] it was 2 µg/mL. Also, the MIC in the experiment with Acinetobacter baumannii [8] is 2 µg/mL; in the experiment with Staphylococcus aureus [21] it was 1 µg/mL; with Bacillus subtilis [9], 0.5 µg/mL; in experiment [10], 1 µg/mL; in the experiment with Escherichia coli [14] it was 4 µg/mL.
